Test results: ChEMBL document CHEMBL1201862, “PubChem BioAssay data set” (2004)
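96-well plates; 48 h exposure; 5 concentrations. Endpoints by linear interpolation between flanking doses. Not reached: highest tested concentration assigned. At the GI50, growth is halved.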 Calls of active or inactive are those of the source. Rule as the data show it: active = GI50 up to about 1.1 µM and inactive = higher.

Legend:
Assay in all cases: NCI anticancer screen, dose series, 48 h
[1] = system: A498
[2] = system: ACHN
[3] = system: CAKI-1
[4] = system: DLD-1
[5] = system: HOP-62
[6] = system: K562
[7] = system: M14
[8] = system: MOLT-4
[9] = system: Malme-3M
[10] = system: NCI-H522
[11] = system: RPMI-8226
[12] = system: RXF 393
[13] = system: SK-MEL-2
[14] = system: SK-OV-3
[15] = system: SN12C
[16] = system: SNB-19
[17] = system: SW-620

Measured: GI50

Cc1ccc(C)c(NC(=O)CCc2nnc(S)[nH]2)c1
inactive: [1] > 100 µM | [2] > 100 µM | [3] > 100 µM | [4] 54.1 µM | [5] > 100 µM | [6] > 100 µM | [7] > 100 µM | [8] > 100 µM | [9] > 100 µM | [10] > 100 µM | [11] > 100 µM | [12] > 100 µM | [13] > 100 µM | [14] > 100 µM | [15] > 100 µM | [16] > 100 µM | [17] 17.4 µM

N#C/C(=C\c1cc2ccccc2c2ccccc12)c1ccccc1
inactive: [1] 9.18 µM | [2] 14.5 µM | [3] 7.76 µM | [4] 5.6 µM | [5] 2.49 µM | [6] 3.13 µM | [7] 6.05 µM | [8] 7.26 µM | [9] 4.86 µM | [10] 5.83 µM | [11] 6.59 µM | [12] 5.66 µM | [13] 3.39 µM | [14] 6.73 µM | [15] 9.59 µM | [16] 8.99 µM | [17] 4.65 µM

CN(C)C(c1ccccc1)C(O)c1ccccc1 (stereo unspecified)
inactive: [1] > 100 µM | [2] > 100 µM | [3] > 100 µM | [4] > 100 µM | [5] > 100 µM | [6] > 100 µM | [7] > 100 µM | [8] > 100 µM | [9] > 100 µM | [10] > 100 µM | [11] > 100 µM | [12] > 100 µM | [13] > 100 µM | [14] > 100 µM | [15] > 100 µM | [16] > 100 µM | [17] > 100 µM

Cc1ns/c(=N\C(=S)N(C)C)n1C
inactive: [1] > 100 µM | [2] > 100 µM | [3] > 100 µM | [4] > 100 µM | [5] > 100 µM | [6] > 100 µM | [7] > 100 µM | [8] > 100 µM | [9] > 100 µM | [10] > 100 µM | [11] > 100 µM | [12] > 100 µM | [13] > 100 µM | [14] > 100 µM | [15] > 100 µM | [16] > 100 µM | [17] > 100 µM

CC(=O)C1=C(C)Cn2c(=O)c3ccccc3c(=O)n2C1
inactive: [1] 82 µM | [2] > 100 µM | [3] > 100 µM | [4] > 100 µM | [5] > 100 µM | [6] > 100 µM | [7] > 100 µM | [8] > 100 µM | [9] > 100 µM | [10] > 100 µM | [11] > 100 µM | [12] > 100 µM | [13] > 100 µM | [14] > 100 µM | [15] > 100 µM | [16] > 100 µM | [17] > 100 µM

COc1cc(C2C(C(=O)Nc3ccc([N+](=O)[O-])cc3)=C(C)NC(C)=C2C(=O)Nc2ccc([N+](=O)[O-])cc2)ccc1O
inactive: [1] 36.7 µM | [2] 24.3 µM | [3] 31 µM | [4] 25.6 µM | [5] 18.4 µM | [6] 13.5 µM | [7] 23.9 µM | [8] 19.9 µM | [9] 20.8 µM | [10] 15.8 µM | [11] 24.3 µM | [12] 19.5 µM | [13] 15.9 µM | [14] 27.9 µM | [15] 18.4 µM | [16] 25.7 µM | [17] 21.6 µM

Cc1ccc(C)c(N2C(=O)C(=O)C(c3nc4ccccc4s3)C(=O)C2=O)c1
inactive: [1] > 100 µM | [2] > 100 µM | [3] > 100 µM | [4] > 100 µM | [5] > 100 µM | [6] > 100 µM | [7] > 100 µM | [8] > 100 µM | [9] > 100 µM | [10] > 100 µM | [11] > 100 µM | [12] > 100 µM | [13] > 100 µM | [14] > 100 µM | [15] > 100 µM | [16] > 100 µM | [17] > 100 µM

Brc1ccc(/C=N/C23CC4CC(CC(C4)C2)C3)cc1
inactive: [1] > 100 µM | [2] > 100 µM | [3] > 100 µM | [4] > 100 µM | [5] > 100 µM | [6] > 100 µM | [7] > 100 µM | [8] > 100 µM | [9] > 100 µM | [10] > 100 µM | [11] > 100 µM | [12] > 100 µM | [13] > 100 µM | [14] > 100 µM | [15] > 100 µM | [16] > 100 µM | [17] > 100 µM
